Measured values as given in the NIST ThermoML archive (doi:10.1016/j.jct.2019.07.013).
± gives the expanded uncertainty stated by the source.

Details: for mass density: 100 kPa, Vibrating tube method; for mass density / electrical conductivity: Liquid; for electrical conductivity: 101.33 kPa, Direct current cell with electrodes; for Glass transition temperature: DSC

mass density (283.15 K) | mass density (288.15 K) | mass density (293.15 K) | mass density (298.15 K) | mass density (303.15 K) | mass density (308.15 K) | mass density (313.15 K) | mass density (318.15 K) | mass density (323.15 K) | electrical conductivity (293.15 K) | electrical conductivity (298.15 K) | electrical conductivity (303.15 K) | electrical conductivity (308.15 K) | electrical conductivity (313.15 K) | electrical conductivity (318.15 K) | electrical conductivity (323.15 K) | Glass transition temperature | Normal melting temperature (Crystal, DTA) | SMILES
1229.25 ± 6.8 kg/m3 | 1225.9 ± 6.7 kg/m3 | 1222.43 ± 6.7 kg/m3 | 1218.74 ± 6.7 kg/m3 | 1214.96 ± 6.7 kg/m3 | 1211.48 ± 6.7 kg/m3 | 1207.96 ± 6.6 kg/m3 | 1204.4 ± 6.6 kg/m3 | 1200.81 ± 6.6 kg/m3 | 0.00255 ± 0.00018 S/m | 0.00445 ± 0.00031 S/m | 0.00733 ± 0.00051 S/m | 0.0114 ± 0.0008 S/m | 0.0175 ± 0.0012 S/m | 0.0256 ± 0.0018 S/m | 0.0366 ± 0.0026 S/m | -49.00 ± 1.2 °C |  | C=CCCn1cc[n+](CCCC)c1.[Br-] [1-(3-butenyl)-3-butylimidazolium bromide]
1305.11 ± 5.7 kg/m3 | 1301.34 ± 5.7 kg/m3 | 1297.64 ± 5.7 kg/m3 | 1294.11 ± 5.6 kg/m3 | 1290.54 ± 5.6 kg/m3 | 1286.92 ± 5.6 kg/m3 | 1283.26 ± 5.6 kg/m3 | 1279.57 ± 5.6 kg/m3 | 1275.88 ± 5.6 kg/m3 | 0.014 ± 0.00098 S/m | 0.0226 ± 0.0016 S/m | 0.0353 ± 0.0025 S/m | 0.0524 ± 0.0037 S/m | 0.0747 ± 0.0052 S/m | 0.12 ± 0.0084 S/m | 0.162 ± 0.011 S/m | -63.48 ± 1.2 °C | 70.68 ± 1.1 °C | C=CCCn1cc[n+](CC)c1.[Br-] [1-(3-butenyl)-3-ethylimidazolium bromide]

Continued, molecule first:

SMILES | mass density (283.15 K) | mass density (288.15 K) | mass density (293.15 K) | mass density (298.15 K) | mass density (303.15 K) | mass density (308.15 K) | mass density (313.15 K) | mass density (318.15 K) | mass density (323.15 K) | electrical conductivity (293.15 K) | electrical conductivity (298.15 K) | electrical conductivity (303.15 K) | electrical conductivity (308.15 K) | electrical conductivity (313.15 K) | electrical conductivity (318.15 K) | electrical conductivity (323.15 K) | Glass transition temperature | Normal melting temperature (Crystal, DTA)
CCCCCC[n+]1ccn(C)c1.O=S(=O)([N-]S(=O)(=O)C(F)(F)F)C(F)(F)F | 1386 ± 5 kg/m3 | 1381.41 ± 5 kg/m3 | 1376.82 ± 5 kg/m3 | 1371.8 ± 5 kg/m3 | 1367.65 ± 5 kg/m3 | 1363.1 ± 5 kg/m3 | 1357.5 ± 5 kg/m3 | 1352.61 ± 5 kg/m3 | 1349.44 ± 5 kg/m3 |  |  |  |  |  |  |  |  | 
C=CCCn1cc[n+](C)c1.[Br-] [1-(3-butenyl)-3-methylimidazolium bromide] | 1354.24 ± 15 kg/m3 | 1350.42 ± 15 kg/m3 | 1346.67 ± 14 kg/m3 | 1343.07 ± 14 kg/m3 | 1339.41 ± 14 kg/m3 | 1335.7 ± 14 kg/m3 | 1331.9 ± 14 kg/m3 | 1328.14 ± 14 kg/m3 | 1324.34 ± 14 kg/m3 | 0.0126 ± 0.00089 S/m | 0.0214 ± 0.0015 S/m | 0.0343 ± 0.0024 S/m | 0.0522 ± 0.0037 S/m | 0.0772 ± 0.0054 S/m | 0.116 ± 0.0081 S/m | 0.162 ± 0.011 S/m | -49.60 ± 1.2 °C | 
O [water] | 999.7 ± 0.05 kg/m3 | 999.05 ± 0.05 kg/m3 |  |  |  |  | 992.31 ± 0.06 kg/m3 | 990.42 ± 0.06 kg/m3 | 988.3 ± 0.06 kg/m3 |  |  |  |  |  |  |  |  | 
